{"source": "paper PMC3174061", "about": "(Journal of the American Chemical Society, 2011)", "key": {"LipN": {"target": "LipN (Streptomyces sp. SANK 60405, UniProt D4QF27)", "assay": "HPLC, MS and NMR of product", "assay_type": "biochemical", "conditions": "sugar donor, uridine as surrogate acceptor, 5 mM MgCl2, 30 °C"}, "LipO": {"target": "LipO (Streptomyces sp. SANK 60405, UniProt D4QF28)", "assay": "UV/Vis spectroscopy, co-purification", "assay_type": "binding", "conditions": "co-purified cofactor, Lys282 internal aldimine expected"}, "purified protein": {"substrate": "NC[C@H]1O[C@@H](n2ccc(=O)[nH]c2=O)[C@H](O)[C@@H]1O", "assay": "purified protein", "assay_type": "biochemical, Escherichia coli", "conditions": "pH 7.5, […] phosphate, 30 °C"}}}
{"molecule": "NC[C@H]1O[C@H](OP(=O)(O)OP(=O)(O)OC[C@H]2O[C@@H](n3ccc(=O)[nH]c3=O)[C@H](O)[C@@H]2O)[C@H](O)[C@@H]1O", "note": "[UDP-5-amino-5-deoxy-α-D-ribose]", "values": [{"measurement": "HPLC, MS and NMR of product; donor generated in situ by LipP and LipM", "setting": "LipN", "result": "higher yields were obtained with the genuine sugar donor UDP-5-amino-5-deoxy-α-D-ribose"}]}
{"molecule": "Cc1ncc(COP(=O)(O)O)c(C=O)c1O", "note": "[PLP]", "values": [{"measurement": "UV/Vis spectroscopy, co-purification", "setting": "LipO", "result": "shown by UV/Vis spectroscopy to co-purify with the cofactor PLP"}]}
{"molecule": "EcUdp (Escherichia coli K-12) (protein) SKSDVFHLGLTKNDLQGATLAIVPGDPDRVEKIAALMDKPVKLASHREFTTWRAELDGKPVIVCSTGIGGPSTSIAVEELAQLGIRTFLRIGTTGAIQPHINVGDVLVTTASVRLDGASLHFAPLEFPAVADFECTTALVEAAKSIGATTHVGVTASSDTFYPGQERYDTYSGRVVRHFKGSMEEWQAMGVMNYEMESATLLTMCASQGLRAGMVAGVIVNRTQQEIPNAETMKQTESHAVKIVVEAARRLL", "values": [{"measurement": "Km", "setting": "purified protein", "result": "(2.0 ± 0.5) × 10^3 µM"}, {"measurement": "kcat", "setting": "purified protein", "result": "5.33 ± 0.667", "unit": "s⁻¹"}]}
